Source: the METLIN SMRT retention time set (Domingo-Almenara et al. 2019)
Each block holds one compound with its values, some of them ahead of it.

Assay: gradient 5% acetonitrile 3 min, to 50% in 2 min, to 85% in 15 min, held 3 min, 100 µL/min
Settings: column: Zorbax Extend-C18 2.1 x 50 mm; eluents: water / acetonitrile, 0.1% formic acid
Outline: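 Retention time was recorded from adduct peaks, which were picked computationally and each inspected manually. Pure standards ran in mixtures of ~100 molecules on HPLC coupled to a quadrupole time-of-flight mass spectrometer, in positive and negative ionization mode, through a Zorbax Extend-C18 column (2.1 × 50 mm, 1.8 μm) at 100 μL/min. Eluents were water and acetonitrile, each with 0.1% formic acid.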

Structure (SMILES): O=C(Cc1cccs1)NCc1nnnn1-c1ccc(F)c(F)c1
- RP-LC retention time: 711 s

Structure (SMILES): Cc1nn(-c2ccccc2)c(C)c1S(=O)(=O)N1CCC(C(=O)NCc2ccc(Cl)cc2)CC1
- RP-LC retention time: 966 s

Structure (SMILES): COc1ccc(C2c3c(oc4ccc(Br)cc4c3=O)C(=O)N2C)cc1OC (stereo not drawn)
- RP-LC retention time: 774 s

Structure (SMILES): CCOc1cc(=O)n2c(c1C(=O)Nc1cc(F)cc(F)c1)CCCC2
- RP-LC retention time: 794 s

Structure (SMILES): O=C(Cc1ccsc1)N1CCC(n2c(-c3ccoc3)nc3cccnc32)C1 (stereo not drawn)
- RP-LC retention time: 811 s

Structure (SMILES): Cc1ccc(C(=O)N2CCC(c3nc(-c4ccncc4)n[nH]3)CC2)s1
- RP-LC retention time: 597 s

Structure (SMILES): COc1ccc(CCC(=O)N2CCCC2c2c(C)noc2C)cc1 (stereo not drawn)
- RP-LC retention time: 868 s

Structure (SMILES): CC1(C)CC(=O)C2=C(C1)Nc1ccccc1N(CC(=O)N1CCOCC1)C2c1cccs1 (stereo not drawn)
- RP-LC retention time: 721 s

Structure (SMILES): Nc1nc(N2CCC3(CC2)OCCO3)ncc1S(=O)(=O)c1ccccc1
- RP-LC retention time: 808 s

Structure (SMILES): COC1C(=O)N(c2cccc(F)c2)C12CCNCC2 (stereo not drawn)
- RP-LC retention time: 604 s

Structure (SMILES): CN(C)S(=O)(=O)c1ccc(C(=O)Oc2coc(CSc3nccn3C)cc2=O)cc1
- RP-LC retention time: 566 s

Structure (SMILES): CCN1CCN(c2ncc3c(n2)CCN(Cc2cccc(Br)c2)C3)CC1
- RP-LC retention time: 550 s

Structure (SMILES): CCOC(=O)c1c(C)[nH]c(C(=O)N2CCCC(C(=O)NCCN3CCCCCC3)C2)c1C (stereo not drawn)
- RP-LC retention time: 578 s

Structure (SMILES): CCCS(=O)(=O)c1nc2ccc(NS(=O)(=O)c3cc(F)cc(F)c3)cc2s1
- RP-LC retention time: 952 s

Structure (SMILES): O=C(C1=C(O)C(=O)N(CCCn2ccnc2)C1c1cccc([N+](=O)[O-])c1)c1cccs1 (stereo not drawn)
- RP-LC retention time: 565 s

Structure (SMILES): CCCNc1cc(N2CCC(CCC(=O)NCc3ccccn3)CC2)ncn1
- RP-LC retention time: 556 s

Structure (SMILES): O=C(Nc1nc(-c2ccncc2)cs1)c1ccc(NS(=O)(=O)c2ccccc2)cc1
- RP-LC retention time: 589 s

Structure (SMILES): Cc1[nH]c(=O)[nH]c(=O)c1S(=O)(=O)NC1CCCC1
- RP-LC retention time: 620 s

Structure (SMILES): CCN1CCCn2cc(S(=O)(=O)Nc3ccc(C)cc3Cl)cc2C1=O
- RP-LC retention time: 775 s

Structure (SMILES): COc1ccc(C2Cn3cnc(C(=O)N4CCC(C(=O)NC5CCCC5)CC4)c3CO2)cc1 (stereo not drawn)
- RP-LC retention time: 705 s

Structure (SMILES): CCN1c2ccc(C)cc2C(=O)NC12CCN(C(=O)c1ccc(OC)c(OC)c1)CC2
- RP-LC retention time: 744 s

Structure (SMILES): CN(Cc1cccnc1Oc1ccccc1)C(=O)c1cnccn1
- RP-LC retention time: 691 s

Structure (SMILES): CCc1ccc(CNC(=O)c2cc3n(n2)CC(C)(C(=O)NCCC(C)C)N(C)C3=O)cc1 (stereo not drawn)
- RP-LC retention time: 860 s

Structure (SMILES): CC(C)CN(Cc1cccnc1)C1CN(C(=O)NCc2ccccc2)C1
- RP-LC retention time: 627 s

Structure (SMILES): O=C(Nc1cnc(N2CCCC2)nc1)c1cccc(Cl)c1
- RP-LC retention time: 765 s

Structure (SMILES): Cn1ncc2c(N3CCOCC3)nc(C(=O)NCc3ccccc3)nc21
- RP-LC retention time: 701 s

Structure (SMILES): Cc1ccc(-c2cc(C(=O)NCCc3sccc3C)c(C)[nH]2)cc1C
- RP-LC retention time: 1040 s

Structure (SMILES): Cc1cc(C)c(CNC(=O)C2CCCN(c3cnc4nccnc4c3)C2)c(C)c1 (stereo not drawn)
- RP-LC retention time: 819 s

Structure (SMILES): Cc1cc(C)nc(-n2nc(C)cc2N)n1
- RP-LC retention time: 577 s

Structure (SMILES): CC1CCC(NC(=O)C2CCN(S(=O)(=O)c3ccc4c(c3)sc(=O)n4C)CC2)CC1 (stereo not drawn)
- RP-LC retention time: 896 s

Structure (SMILES): O=C(NCc1ccccc1Cl)c1ccc(NC(=O)C2CCC2)cc1N1CCOCC1
- RP-LC retention time: 873 s

Structure (SMILES): O=C1CCCN1CCCN1C(=O)[C@H]2CN(Cc3ccccc3OC(F)(F)F)C[C@H]2C1=O
- RP-LC retention time: 687 s

Structure (SMILES): CCCCn1cc(S(=O)(=O)Nc2ccc(F)c(F)c2)c2cccnc21
- RP-LC retention time: 966 s

Structure (SMILES): CSc1nc(NC(C)C)c(C#N)c(-c2ccccc2)n1
- RP-LC retention time: 1190 s

Structure (SMILES): O=C(CN1C(=O)C2CCCCN2c2ccc(S(=O)(=O)N3CCCCC3)cc21)NCc1ccccc1 (stereo not drawn)
- RP-LC retention time: 988 s

Structure (SMILES): CN(C)C(CNC(=O)Nc1cccs1)c1cccs1 (stereo not drawn)
- RP-LC retention time: 556 s

Structure (SMILES): O=C(CSc1ccc(N2CCCC(C(=O)NC3CC3)C2)nn1)NCc1cccs1 (stereo not drawn)
- RP-LC retention time: 593 s

Structure (SMILES): COC(=O)C(C)n1nc2nc(Nc3cc(C)cc(C)c3)cc(C)n2c1=O (stereo not drawn)
- RP-LC retention time: 1160 s

Structure (SMILES): COc1ccc(CNC(=O)C2CN(S(=O)(=O)C3CC3)CC23CCCCC3)c(OC)c1 (stereo not drawn)
- RP-LC retention time: 815 s

Structure (SMILES): Cc1cc(NC(=O)CSc2nnc3sc4ccccc4n23)no1
- RP-LC retention time: 668 s

Structure (SMILES): O=C(Cn1nc2c(c1NC(=O)c1cnccn1)CSC2)NCc1ccco1
- RP-LC retention time: 664 s

Structure (SMILES): Cc1ccc(NC(=O)N2CCN(CCn3cnc4cccnc43)CC2)cc1Cl
- RP-LC retention time: 636 s

Structure (SMILES): CCOC(=O)CC1(NC(=O)N2CCN(c3nc4ccccc4nc3C(F)(F)F)CC2)CCCCC1
- RP-LC retention time: 1230 s

Structure (SMILES): COc1cccc(OC)c1OCCNCC1COc2ccccc2O1 (stereo not drawn)
- RP-LC retention time: 767 s

Structure (SMILES): COc1cccc(CN2CCc3nn(C)c(=O)n3CC2)n1
- RP-LC retention time: 544 s

Structure (SMILES): CSc1cccc(NS(=O)(=O)c2cc3c(s2)CCN(C(=O)C2CC2)C3)c1
- RP-LC retention time: 860 s

Structure (SMILES): CCc1nnc(NC(=O)C2CCN(C(=O)c3ccccc3F)CC2)s1
- RP-LC retention time: 675 s

Structure (SMILES): O=C(NCCC1CCN(C(=O)Nc2cc(F)cc(F)c2)CC1)C1CCCC1
- RP-LC retention time: 860 s

Structure (SMILES): C=CCNC(=O)COc1cccc2c(=O)n(CC=C)ccc12
- RP-LC retention time: 700 s

Structure (SMILES): COc1cc(NC(=O)Cc2ccc(S(=O)(=O)C(C)C)cc2)c2ncccc2c1
- RP-LC retention time: 827 s

Structure (SMILES): COc1ccc(Cl)cc1NC(=O)N1CCc2nc[nH]c2C1
- RP-LC retention time: 604 s

Structure (SMILES): CCN1C(=O)c2cc(S(=O)(=O)Nc3ccc(C)cc3C)ccc2Oc2cccnc21
- RP-LC retention time: 1080 s

Second part, the compound after the results:

- RP-LC retention time: 1180 s
Structure (SMILES): CC(C)c1ccc(-c2nc(C3CC(=O)N(c4ccc(F)cc4)C3)no2)cc1 (stereo not drawn)

- RP-LC retention time: 754 s
Structure (SMILES): COc1ccc(C(=O)NC2CCN(c3cc(-c4ccc(Cl)cc4)[nH]n3)C2)c(OC)c1 (stereo not drawn)

- RP-LC retention time: 1110 s
Structure (SMILES): O=C(Cn1cnc2c(sc3nc(-c4ccccc4)ccc32)c1=O)Nc1cccc(Br)c1

- RP-LC retention time: 1090 s
Structure (SMILES): Cc1ccc2c(c1)N(C(=O)Cn1ccc3ccn(Cc4ccccc4C)c3c1=O)CCO2

- RP-LC retention time: 692 s
Structure (SMILES): Cc1ccc2nc(-c3c(F)cccc3Cl)c(Nc3ccc4c(c3)OCCO4)n2c1

- RP-LC retention time: 1130 s
Structure (SMILES): Cc1cccc(NC(=O)CSc2cc(N3CCN(c4ccccc4F)CC3)ncn2)c1C

- RP-LC retention time: 825 s
Structure (SMILES): CC1(C)CS(=O)(=O)N(c2ccc(C(=O)NCCc3c[nH]c4ccccc34)cc2)C1=O

- RP-LC retention time: 770 s
Structure (SMILES): Cc1cnc(-c2ccccc2C(C)C)nc1NCc1ccc(-n2ccnn2)cc1

- RP-LC retention time: 750 s
Structure (SMILES): CCOc1ccc(-n2cc(C(=O)OCc3ccccn3)c3ccccc3c2=O)cc1

- RP-LC retention time: 666 s
Structure (SMILES): CCOc1ccc(S(=O)(=O)Nc2cccc(-c3cn4cccc(C)c4n3)c2)cc1

- RP-LC retention time: 972 s
Structure (SMILES): CCc1ccc(NC(=O)N2CCCC(C)(C(=O)NCc3ccc(F)cc3)C2)cc1 (stereo not drawn)

- RP-LC retention time: 1140 s
Structure (SMILES): CCOC(=O)c1nc(N2CCN(c3cc(Cl)ccc3C)CC2)c2ccccc2n1

- RP-LC retention time: 1100 s
Structure (SMILES): COc1ccc(-c2cc(-c3ccccc3)nc3c2CC(=O)Nc2ccccc2-3)cc1OC

- RP-LC retention time: 747 s
Structure (SMILES): Cc1ccc(C2=NC3(CCN(C(=O)c4ccc[nH]4)CC3)ON2)cc1

- RP-LC retention time: 894 s
Structure (SMILES): COc1ccccc1-c1nc(C2CC(=O)N(c3ccccc3)C2)no1 (stereo not drawn)

- RP-LC retention time: 1160 s
Structure (SMILES): CCOc1ccc(-c2csc(NC(=O)CCCc3nc(-c4ccccc4Cl)no3)n2)cc1

- RP-LC retention time: 758 s
Structure (SMILES): CC(=O)N1CCC(C(=O)Nc2ccc(OCc3nnc(-c4ccc(Cl)cc4)o3)cc2)CC1

- RP-LC retention time: 1160 s
Structure (SMILES): CCOc1ccccc1NC(=O)Cn1c(C)nc2c(sc3nc(-c4ccccc4)ccc32)c1=O

- RP-LC retention time: 834 s
Structure (SMILES): O=C(CN1CCN(c2ccccc2)CC1)Nc1nc(-c2ccc(Cl)cc2)cs1

- RP-LC retention time: 878 s
Structure (SMILES): Cc1ccsc1C(=O)N1CCN(c2ccc(=O)n(-c3ccc(Cl)cc3)n2)CC1

- RP-LC retention time: 744 s
Structure (SMILES): CC(C)CNC(=O)Cc1nnc(-c2cccc(F)c2)o1

- RP-LC retention time: 802 s
Structure (SMILES): Cc1ccc(N2C=C(C(=O)N3CCCC3)S(=O)(=O)c3ccccc32)cc1

- RP-LC retention time: 753 s
Structure (SMILES): COc1ccc(N2CCN(C(=O)Cn3ccc4ccc(-c5nnc(C)o5)cc43)CC2)cc1

- RP-LC retention time: 1030 s
Structure (SMILES): Cc1ccc(-c2nc(C3CC(=O)N(c4ccc(F)cc4)C3)no2)cc1 (stereo not drawn)

- RP-LC retention time: 945 s
Structure (SMILES): COC(=O)c1ccc(-c2nc3cnccn3c2Nc2cccc(C(F)(F)F)c2)cc1

- RP-LC retention time: 1110 s
Structure (SMILES): CCOC(=O)C1C(=O)C=C(c2cccs2)CC1c1ccc(F)cc1 (stereo not drawn)

- RP-LC retention time: 784 s
Structure (SMILES): CNC(=O)Nc1ccc(C2(C(=O)NCc3ccc(F)cc3Cl)CCC2)cc1

- RP-LC retention time: 636 s
Structure (SMILES): O=c1[nH]c2ccc(NCc3c(F)cccc3Cl)cc2[nH]1

- RP-LC retention time: 695 s
Structure (SMILES): CC1(C)CC(=O)c2cn(-c3ccc(F)cc3)c(=O)c(C(=O)N3CCOCC3)c2C1

- RP-LC retention time: 1080 s
Structure (SMILES): CCOc1ccc(N2CC(c3nc(-c4ccc(Cl)cc4)no3)CC2=O)cc1 (stereo not drawn)

- RP-LC retention time: 890 s
Structure (SMILES): CCc1csc(-c2ccc(N3CCN(C(=O)c4ccc(F)cc4F)CC3)nc2)n1

- RP-LC retention time: 652 s
Structure (SMILES): Cc1noc(C)c1CCNC(=O)c1cc(-c2cccnc2)nc2ccccc12

- RP-LC retention time: 656 s
Structure (SMILES): CC1Oc2ccccc2OC1C(=O)Nc1cccc(-c2cn3c(n2)SCC3)c1 (stereo not drawn)

- RP-LC retention time: 1030 s
Structure (SMILES): COc1cccc(-c2noc(Cn3c(=O)n(-c4ccc(C)cc4)c(=O)c4sccc43)n2)c1

- RP-LC retention time: 929 s
Structure (SMILES): CCOC(=O)c1nc(Nc2ccc(C)cc2Cl)c2ccccc2n1

- RP-LC retention time: 874 s
Structure (SMILES): COc1ccc(-c2cn3ccn(-c4cc(C)cc(C)c4)c(=O)c3n2)cc1
